The source made the active and inactive calls. The rule behind the calls is not given here.
Experiments:
[1] = target: T1, Serine/threonine-protein kinase 3 (Homo sapiens) (UniProt Q13188); assay: Inhibition of MST2 Lys2 labeling site harbouring IHRDIKAGNILLNTEGHAK in human Huh-7 cell lysate at 1 uM by KiNativ Profiling analysis relative to control; assay type: subcellular
T1 sequence (whole entry): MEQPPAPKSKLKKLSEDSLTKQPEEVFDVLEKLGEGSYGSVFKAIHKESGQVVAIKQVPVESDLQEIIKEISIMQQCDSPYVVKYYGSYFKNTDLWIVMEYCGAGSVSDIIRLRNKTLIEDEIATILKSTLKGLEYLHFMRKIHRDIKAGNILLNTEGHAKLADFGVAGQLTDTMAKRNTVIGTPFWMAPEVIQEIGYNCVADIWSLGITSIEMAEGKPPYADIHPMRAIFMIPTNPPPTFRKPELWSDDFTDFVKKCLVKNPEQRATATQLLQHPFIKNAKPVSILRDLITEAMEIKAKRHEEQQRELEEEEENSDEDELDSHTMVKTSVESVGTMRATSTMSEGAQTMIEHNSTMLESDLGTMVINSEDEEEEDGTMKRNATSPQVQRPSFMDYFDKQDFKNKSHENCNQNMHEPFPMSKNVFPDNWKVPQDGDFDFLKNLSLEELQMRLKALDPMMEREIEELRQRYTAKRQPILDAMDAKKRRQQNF

[2] = target: Phosphatidylinositol 4-kinase alpha (Homo sapiens) (UniProt P42356); assay: Inhibition of PI4KA ATP labeling site in human Huh-7 cells at 1 uM by KiNativ Profiling analysis relative to control; assay type: cell-based
[3] = target: T2, Mitogen-activated protein kinase 13 (Homo sapiens) (UniProt O15264); assay: Inhibition of p38 delta (unknown origin) at 1 uM by Ambit Kinomescan binding assay relative to control
T2 sequence (whole entry): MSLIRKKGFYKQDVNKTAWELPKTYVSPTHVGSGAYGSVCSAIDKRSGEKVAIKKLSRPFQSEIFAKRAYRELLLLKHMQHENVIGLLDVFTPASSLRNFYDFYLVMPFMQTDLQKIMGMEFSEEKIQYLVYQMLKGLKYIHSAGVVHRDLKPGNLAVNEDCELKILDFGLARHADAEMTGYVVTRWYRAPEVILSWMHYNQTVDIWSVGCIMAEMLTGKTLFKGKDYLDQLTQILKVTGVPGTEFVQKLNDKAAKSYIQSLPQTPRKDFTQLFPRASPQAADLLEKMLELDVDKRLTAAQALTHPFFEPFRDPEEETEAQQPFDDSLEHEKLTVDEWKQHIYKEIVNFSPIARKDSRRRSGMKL

[4] = target: Serine/threonine-protein kinase MRCK gamma (Homo sapiens) (UniProt Q6DT37); assay: Inhibition of DMPK2 (unknown origin) at 1 uM by Ambit Kinomescan binding assay relative to control; values are per cent of control
Serine/threonine-protein kinase MRCK gamma (Homo sapiens), sequence (Q6DT37 whole entry): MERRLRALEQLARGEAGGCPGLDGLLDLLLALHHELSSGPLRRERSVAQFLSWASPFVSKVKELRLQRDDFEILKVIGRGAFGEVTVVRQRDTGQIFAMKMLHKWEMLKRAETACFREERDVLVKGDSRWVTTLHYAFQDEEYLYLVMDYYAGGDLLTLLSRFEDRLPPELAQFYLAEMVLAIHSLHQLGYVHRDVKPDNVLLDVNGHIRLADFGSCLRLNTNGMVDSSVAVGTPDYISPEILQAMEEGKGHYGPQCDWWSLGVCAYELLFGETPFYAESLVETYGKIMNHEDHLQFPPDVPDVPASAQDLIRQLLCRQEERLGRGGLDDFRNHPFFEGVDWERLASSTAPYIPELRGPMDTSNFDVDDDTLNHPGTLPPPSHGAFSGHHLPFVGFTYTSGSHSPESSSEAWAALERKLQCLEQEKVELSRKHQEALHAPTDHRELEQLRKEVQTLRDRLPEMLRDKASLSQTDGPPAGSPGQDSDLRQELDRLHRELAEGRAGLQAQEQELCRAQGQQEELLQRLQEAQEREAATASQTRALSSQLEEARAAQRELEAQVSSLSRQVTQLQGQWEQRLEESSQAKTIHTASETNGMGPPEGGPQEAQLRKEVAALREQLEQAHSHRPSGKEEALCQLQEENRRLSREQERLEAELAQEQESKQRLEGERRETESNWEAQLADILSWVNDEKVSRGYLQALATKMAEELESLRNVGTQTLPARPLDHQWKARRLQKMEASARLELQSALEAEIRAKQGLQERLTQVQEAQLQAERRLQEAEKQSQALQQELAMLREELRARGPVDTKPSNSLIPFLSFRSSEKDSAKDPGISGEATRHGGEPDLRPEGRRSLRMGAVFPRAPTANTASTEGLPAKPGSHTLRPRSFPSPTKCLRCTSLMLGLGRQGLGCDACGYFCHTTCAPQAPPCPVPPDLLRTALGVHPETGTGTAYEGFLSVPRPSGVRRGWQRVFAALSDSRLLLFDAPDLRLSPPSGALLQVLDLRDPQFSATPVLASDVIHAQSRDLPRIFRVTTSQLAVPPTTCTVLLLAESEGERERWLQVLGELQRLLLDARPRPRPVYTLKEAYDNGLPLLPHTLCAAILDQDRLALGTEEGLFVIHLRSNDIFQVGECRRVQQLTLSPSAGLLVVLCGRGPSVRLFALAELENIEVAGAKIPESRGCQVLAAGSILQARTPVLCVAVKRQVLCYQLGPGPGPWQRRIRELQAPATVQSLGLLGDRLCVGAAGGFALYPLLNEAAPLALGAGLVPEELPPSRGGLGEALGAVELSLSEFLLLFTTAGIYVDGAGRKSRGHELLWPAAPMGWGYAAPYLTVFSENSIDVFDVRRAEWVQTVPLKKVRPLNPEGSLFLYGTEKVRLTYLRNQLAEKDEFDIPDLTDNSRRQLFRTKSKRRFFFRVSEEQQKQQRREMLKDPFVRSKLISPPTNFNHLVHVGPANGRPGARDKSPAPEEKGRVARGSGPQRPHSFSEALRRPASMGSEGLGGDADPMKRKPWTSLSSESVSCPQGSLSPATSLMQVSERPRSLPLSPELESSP

[5] = target: Glycogen synthase kinase-3 beta (Homo sapiens) (UniProt P49841); assay: Inhibition of GSK3B (unknown origin) at 1 uM by Ambit Kinomescan binding assay relative to control; values are per cent of control
Glycogen synthase kinase-3 beta (Homo sapiens), sequence (P49841 whole entry, looked up): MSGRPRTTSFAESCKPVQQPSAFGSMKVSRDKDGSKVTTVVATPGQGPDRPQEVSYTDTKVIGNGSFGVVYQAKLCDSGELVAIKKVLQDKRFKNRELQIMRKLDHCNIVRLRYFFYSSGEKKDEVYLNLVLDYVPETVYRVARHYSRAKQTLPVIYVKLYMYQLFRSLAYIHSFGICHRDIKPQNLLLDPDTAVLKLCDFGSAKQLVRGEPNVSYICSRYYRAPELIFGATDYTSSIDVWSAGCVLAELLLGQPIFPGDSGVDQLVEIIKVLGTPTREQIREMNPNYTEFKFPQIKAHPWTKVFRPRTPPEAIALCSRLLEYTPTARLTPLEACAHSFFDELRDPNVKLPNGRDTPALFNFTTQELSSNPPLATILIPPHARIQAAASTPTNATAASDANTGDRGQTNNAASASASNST

[6] = target: Myosin light chain kinase, smooth muscle (Homo sapiens) (UniProt Q15746); assay: Inhibition of MYLK (unknown origin) at 1 uM by Ambit Kinomescan binding assay relative to control; values are per cent of control
Myosin light chain kinase, smooth muscle (Homo sapiens), sequence (Q15746 whole entry): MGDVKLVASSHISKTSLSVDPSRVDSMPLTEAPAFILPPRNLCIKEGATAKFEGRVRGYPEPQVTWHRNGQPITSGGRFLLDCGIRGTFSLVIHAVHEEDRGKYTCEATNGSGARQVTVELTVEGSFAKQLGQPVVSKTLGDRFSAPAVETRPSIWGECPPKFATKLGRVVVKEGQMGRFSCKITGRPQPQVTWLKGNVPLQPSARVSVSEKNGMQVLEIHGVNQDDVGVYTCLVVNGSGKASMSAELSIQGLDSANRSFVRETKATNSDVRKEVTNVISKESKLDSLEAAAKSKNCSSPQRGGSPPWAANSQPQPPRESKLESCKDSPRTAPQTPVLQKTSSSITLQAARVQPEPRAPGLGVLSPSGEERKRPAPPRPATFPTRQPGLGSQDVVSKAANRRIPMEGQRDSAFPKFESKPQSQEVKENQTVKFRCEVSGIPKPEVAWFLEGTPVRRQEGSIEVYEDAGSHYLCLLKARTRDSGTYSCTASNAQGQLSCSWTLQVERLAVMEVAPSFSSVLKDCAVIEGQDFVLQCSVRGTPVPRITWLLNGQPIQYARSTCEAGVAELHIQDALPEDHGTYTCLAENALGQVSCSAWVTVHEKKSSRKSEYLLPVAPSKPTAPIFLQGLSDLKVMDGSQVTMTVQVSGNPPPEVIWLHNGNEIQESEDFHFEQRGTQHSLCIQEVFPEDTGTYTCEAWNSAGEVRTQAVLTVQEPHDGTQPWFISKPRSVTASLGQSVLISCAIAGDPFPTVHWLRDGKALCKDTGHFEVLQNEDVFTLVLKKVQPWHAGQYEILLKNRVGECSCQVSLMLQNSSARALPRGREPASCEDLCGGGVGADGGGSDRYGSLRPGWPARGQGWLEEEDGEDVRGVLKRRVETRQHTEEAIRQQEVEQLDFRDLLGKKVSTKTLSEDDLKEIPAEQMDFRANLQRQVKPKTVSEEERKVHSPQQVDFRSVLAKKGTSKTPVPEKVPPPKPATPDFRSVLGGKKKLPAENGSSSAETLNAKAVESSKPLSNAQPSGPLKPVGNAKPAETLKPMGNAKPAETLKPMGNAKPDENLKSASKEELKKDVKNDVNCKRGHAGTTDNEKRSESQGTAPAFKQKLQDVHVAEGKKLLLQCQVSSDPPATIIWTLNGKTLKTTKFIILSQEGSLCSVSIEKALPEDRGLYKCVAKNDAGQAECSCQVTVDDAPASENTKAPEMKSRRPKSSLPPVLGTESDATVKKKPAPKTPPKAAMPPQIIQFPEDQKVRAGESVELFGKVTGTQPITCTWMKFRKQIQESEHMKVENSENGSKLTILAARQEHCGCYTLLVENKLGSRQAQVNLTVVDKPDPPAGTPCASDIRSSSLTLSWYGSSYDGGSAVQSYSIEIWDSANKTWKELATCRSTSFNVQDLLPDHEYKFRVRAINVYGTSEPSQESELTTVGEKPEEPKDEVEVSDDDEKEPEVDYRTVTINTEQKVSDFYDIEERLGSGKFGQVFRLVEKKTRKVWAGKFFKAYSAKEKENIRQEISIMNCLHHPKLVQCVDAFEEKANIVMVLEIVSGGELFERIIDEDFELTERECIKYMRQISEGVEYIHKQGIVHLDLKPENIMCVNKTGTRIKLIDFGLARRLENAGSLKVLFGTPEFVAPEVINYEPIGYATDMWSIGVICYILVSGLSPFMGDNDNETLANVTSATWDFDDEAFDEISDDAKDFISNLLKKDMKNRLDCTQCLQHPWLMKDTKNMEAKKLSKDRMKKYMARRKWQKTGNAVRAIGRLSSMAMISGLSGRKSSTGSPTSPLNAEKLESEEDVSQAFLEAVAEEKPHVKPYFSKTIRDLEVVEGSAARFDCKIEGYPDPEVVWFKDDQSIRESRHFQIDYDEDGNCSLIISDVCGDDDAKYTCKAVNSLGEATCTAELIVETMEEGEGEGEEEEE

[7] = target: T3, Atrial natriuretic peptide receptor 2 (Homo sapiens) (UniProt P20594); assay: Inhibition of ANPb Lys2 labeling site in human A-375 cells at 0.5 uM by KiNativ Profiling analysis relative to control; assay type: cell-based
T3 sequence (whole entry): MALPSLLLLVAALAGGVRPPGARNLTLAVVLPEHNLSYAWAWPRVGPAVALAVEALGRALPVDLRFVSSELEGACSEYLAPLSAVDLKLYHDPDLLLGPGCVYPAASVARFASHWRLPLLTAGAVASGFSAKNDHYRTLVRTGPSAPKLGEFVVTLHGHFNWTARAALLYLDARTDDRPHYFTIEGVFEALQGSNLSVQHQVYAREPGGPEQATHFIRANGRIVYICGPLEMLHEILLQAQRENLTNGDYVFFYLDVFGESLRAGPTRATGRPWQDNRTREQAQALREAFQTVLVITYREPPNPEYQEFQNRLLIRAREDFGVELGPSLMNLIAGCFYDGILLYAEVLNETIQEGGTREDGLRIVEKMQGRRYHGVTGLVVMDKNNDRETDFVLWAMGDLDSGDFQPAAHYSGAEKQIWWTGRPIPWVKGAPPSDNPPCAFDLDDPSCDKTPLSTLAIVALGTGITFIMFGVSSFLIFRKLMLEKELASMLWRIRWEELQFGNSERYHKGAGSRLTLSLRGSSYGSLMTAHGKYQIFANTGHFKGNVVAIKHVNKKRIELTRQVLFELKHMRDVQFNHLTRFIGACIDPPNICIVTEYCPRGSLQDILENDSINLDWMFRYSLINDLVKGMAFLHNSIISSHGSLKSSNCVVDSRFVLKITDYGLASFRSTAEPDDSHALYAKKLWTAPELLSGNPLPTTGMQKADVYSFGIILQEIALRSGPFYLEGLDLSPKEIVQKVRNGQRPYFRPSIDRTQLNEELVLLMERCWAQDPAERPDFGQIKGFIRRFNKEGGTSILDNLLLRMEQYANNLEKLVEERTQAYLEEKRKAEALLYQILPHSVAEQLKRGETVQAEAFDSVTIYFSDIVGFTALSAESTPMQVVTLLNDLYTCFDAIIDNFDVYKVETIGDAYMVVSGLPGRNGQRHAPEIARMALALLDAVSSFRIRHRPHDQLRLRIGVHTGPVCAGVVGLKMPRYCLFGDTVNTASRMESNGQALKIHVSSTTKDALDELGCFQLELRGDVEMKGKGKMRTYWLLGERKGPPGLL

[8] = target: Calcium/calmodulin-dependent protein kinase type 1 (Homo sapiens) (UniProt Q14012); assay: Inhibition of CAMK1 (unknown origin) at 10 uM by Ambit Kinomescan binding assay relative to control
Calcium/calmodulin-dependent protein kinase type 1 (Homo sapiens), sequence (Q14012 whole entry, looked up): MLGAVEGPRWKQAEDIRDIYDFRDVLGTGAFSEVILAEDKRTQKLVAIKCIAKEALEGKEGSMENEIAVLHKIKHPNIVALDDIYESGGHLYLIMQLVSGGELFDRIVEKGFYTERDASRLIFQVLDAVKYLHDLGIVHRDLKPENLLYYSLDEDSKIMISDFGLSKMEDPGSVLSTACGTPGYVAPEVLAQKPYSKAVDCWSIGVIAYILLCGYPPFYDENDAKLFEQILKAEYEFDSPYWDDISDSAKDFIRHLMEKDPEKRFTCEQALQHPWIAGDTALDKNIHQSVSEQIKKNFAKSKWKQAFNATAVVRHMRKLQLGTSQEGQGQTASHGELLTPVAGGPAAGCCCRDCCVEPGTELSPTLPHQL

[9] = target: T4, Phosphatidylinositol 5-phosphate 4-kinase type-2 beta (Homo sapiens) (UniProt P78356); assay: Inhibition of PIP5K2B (unknown origin) at 10 uM by Ambit Kinomescan binding assay
T4 sequence (whole entry): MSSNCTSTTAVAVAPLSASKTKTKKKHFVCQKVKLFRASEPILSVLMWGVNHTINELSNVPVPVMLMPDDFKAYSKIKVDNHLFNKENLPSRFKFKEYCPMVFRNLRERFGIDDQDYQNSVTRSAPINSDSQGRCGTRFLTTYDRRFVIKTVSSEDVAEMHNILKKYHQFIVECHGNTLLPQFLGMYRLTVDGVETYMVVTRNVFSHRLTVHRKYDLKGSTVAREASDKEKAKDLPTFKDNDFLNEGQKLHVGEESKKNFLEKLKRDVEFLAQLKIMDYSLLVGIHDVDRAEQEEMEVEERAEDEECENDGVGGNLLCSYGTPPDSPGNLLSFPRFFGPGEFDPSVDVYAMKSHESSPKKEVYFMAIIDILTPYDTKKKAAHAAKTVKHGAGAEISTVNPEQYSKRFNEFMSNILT

CNc1cc(Oc2cc(C(=O)Nc3cc(N4CCN(C)CC4)cc(C(F)(F)F)c3)ccc2C)ncn1
inhibition [1]: 14.4%
inhibition [2]: 29.8%

CCN1CCN(Cc2ccc(NC(=O)c3ccc(C)c(/C=C/c4cnc5[nH]ccc5c4OC)c3)cc2C(F)(F)F)CC1
inhibition [3]: 67%
residual activity [4]: 76%
residual activity [5]: 100%
residual activity [6]: 81%

CCN1CCN(Cc2ccc(NC(=O)c3ccc(C)c(Oc4ccnc5[nH]ccc45)c3)cc2C(F)(F)F)CC1
inhibition [7]: -9.4%
inhibition [8]: 0%
inhibition [9]: inactive

From ChEMBL document CHEMBL5696442, “Discovery of type II inhibitors of TGFβ-activated kinase 1 (TAK1) and mitogen-activated protein kinase kinase kinase kinase 2 (MAP4K2)” (J Med Chem, 2015)
